{
  "source": "patent US20090221019A1",
  "about": "“Core-Modified Terpene Trilactones From Ginkgo Biloba Extract and Biological Evaluation Thereof” (priority 2005, published 2009)",
  "key": {"[1]": {"system": "Aβ1-42 induced inhibition of long-term potentiation in the CA1 region of hippocampal slices", "experiment": "Aβ-induced LTP impairment in CA1 region of hippocampal slices (fEPSP recordings, theta-burst stimulation)", "format": "cell-based, rat; mice", "details": "for reversal of Aβ-induced LTP impairment: individual terpene trilactones at 1 μM each, co-treated with 200 nM Aβ1-42 oligomers, 20 min; for efficiency of rescue of LTP impairment compared with GJ: 1 μM, 20 min treatment, slices treated with Aβ"}, "[2]": {"system": "cultured hippocampal neurons treated with oligomeric Aβ1-42", "experiment": "Neuronal cell death assay (nuclear counting of viable cells)", "details": "for cells surviving: mean±SEM"}, "glycine receptor": {"system": "glycine receptor", "details": "among several receptor-gated channels; cited from earlier work"}, "[3]": {"system": "SY5Y human neuroblastoma cell line", "details": "Bate et al. (25); cited from earlier work"}, "[4]": {"system": "GABAA receptor convulsant binding site", "details": "cited from earlier work"}, "GABAA receptor": {"system": "GABAA receptor", "details": "compared with all the ginkgolides; cited from earlier work"}, "[5]": {"system": "inhibition of LTP by Aβ1-42 oligomers", "details": "earlier studies (19); cited from earlier work"}, "[6]": {"details": "1 μM compound added at the same time as 10 μM oligomeric Aβ1-42, 24 hour, Aβ alone 48.5%±2.4"}},
  "data": [
    {"compound": "CC(C)(C)[C@]1(O)CC2OC(=O)CC23C(=O)OC2OC(=O)[C@H](O)C231", "note": "(stereo partly drawn) [BB, bilobalide]", "values": [
      {"measurement": "reversal of Aβ-induced LTP impairment", "setting": "[1]", "value": "No effect"}
    ]},
    {"compound": "C[C@@H]1C(=O)O[C@H]2C[C@@]34[C@H]5C[C@@H](C(C)(C)C)[C@]36[C@@H](OC(=O)[C@@H]6O)O[C@@]4(C(=O)O5)[C@]21O", "note": "[GA, ginkgolide A]", "values": [
      {"measurement": "cells surviving", "setting": "[2]; [6]", "value": "50.5%±+5.7"},
      {"measurement": "antagonistic properties toward glycine receptor", "setting": "glycine receptor", "value": "showed antagonistic properties exclusively toward glycine receptor"},
      {"measurement": "blockade of cell death", "setting": "[3]", "value": "blockade of cell death"},
      {"measurement": "efficiency of rescue of LTP impairment compared with GJ", "setting": "[1]", "value": "slightly less than that of GJ"},
      {"measurement": "reversal of Aβ-induced LTP impairment", "setting": "[1]", "value": "capable of reproducing the activity of the enriched extract and reversing Aβ-induced LTP impairment"}
    ]},
    {"compound": "C[C@@H]1COC2CC34C5C[C@@H](C(C)(C)C)C36C(OC[C@@H]6O)O[C@@]4(CO5)[C@]21O", "note": "(stereo partly drawn) [GA-triether]", "values": [
      {"measurement": "efficiency of rescue of LTP impairment compared with GJ", "setting": "[1]", "value": "slightly less than that of GJ"},
      {"measurement": "reversal of Aβ-induced LTP impairment", "setting": "[1]", "value": "capable of reproducing the activity of the enriched extract and reversing Aβ-induced LTP impairment"}
    ]},
    {"compound": "CC1C(=O)OC2C(O)C34C5CC(C(C)(C)C)C36C(OC(=O)C6O)OC4(C(=O)O5)C12O", "note": "(stereo not drawn) [GB, ginkgolide B]", "values": [
      {"measurement": "antagonistic properties toward glycine receptor", "setting": "glycine receptor", "value": "showed antagonistic properties exclusively toward glycine receptor"},
      {"measurement": "blockade of cell death", "setting": "[3]", "value": "blockade of cell death"},
      {"measurement": "reversal of Aβ-induced LTP impairment", "setting": "[1]", "value": "No effect"}
    ]},
    {"compound": "C[C@@H]1C(=O)O[C@@H]2[C@H]1[C@@]13OC4OC(=O)[C@H](O)C45[C@H](C(C)(C)C)[C@@H](O)C(OC1=O)[C@]53[C@H]2O", "note": "(stereo partly drawn) [GM, Ginkgolide M]", "values": [
      {"measurement": "displacement of TBPS (35S-tert-butylbicyclophosphorothionate)", "setting": "[4]", "value": "efficiently displaced"},
      {"measurement": "inhibition of the GABAA receptor", "setting": "GABAA receptor", "value": "highest inhibition"}
    ]},
    {"compound": "COc1ccc(C2CNC(=O)C2)cc1OC1CCCC1", "note": "(stereo not drawn) [rolipram]", "values": [
      {"measurement": "reversal of inhibition of LTP by Aβ1-42 oligomers", "setting": "[5]", "value": "can be reversed by treatment with the phosphodiesterase 4 (PDE4) inhibitor rolipram"}
    ]},
    {"compound": "ginkgolide C [GC]", "values": [
      {"measurement": "antagonistic properties toward glycine receptor", "setting": "glycine receptor", "value": "showed antagonistic properties exclusively toward glycine receptor"},
      {"measurement": "reversal of Aβ-induced LTP impairment", "setting": "[1]", "value": "No effect"}
    ]},
    {"compound": "ginkgolide J [GJ]", "values": [
      {"measurement": "cells surviving", "setting": "[2]; [6]", "value": "70.7%±1.4"},
      {"measurement": "prevention of Aβ-toxicity", "setting": "[2]; 5 μM, data not shown", "value": "completely prevented the Aβ-toxicity"},
      {"measurement": "antagonistic properties toward glycine receptor", "setting": "glycine receptor", "value": "showed antagonistic properties exclusively toward glycine receptor"},
      {"measurement": "potentiation at the end of the recording (residual potentiation, FIG. 12)", "setting": "[1]; 155 min", "value": "most potent ginkgolide, completely mimicking the activity of the enriched extract"},
      {"measurement": "reversal of Aβ-induced LTP impairment", "setting": "[1]", "value": "capable of reproducing the activity of the enriched extract and reversing Aβ-induced LTP impairment"}
    ]},
    {"compound": "oligomeric Aβ1-42: Aβ1-42 purchased from American Peptide, prepared in oligomeric form; neurotoxic agent [reference compound]", "values": [
      {"measurement": "cells surviving", "setting": "[2]; 10 μM oligomeric Aβ1-42 alone, 24 hour exposure", "value": "48.5%±2.4"},
      {"measurement": "LTP in the CA1 area relative to control", "setting": "[1]; 200 nM Aβ1-42 oligomers alone, within 20 min of exposure", "value": "depressed LTP in the CA1 area to about a half of control values"},
      {"measurement": "effect on baseline transmission", "setting": "[1]; substance alone", "value": "Neither Aβ nor P8A alone affected baseline transmission"}
    ]}
  ]
}
